Patent publication US6900019B1, “In-situ cell extraction and assay method” (Amersham Biosciences UK Limited, priority 1997, dated 2005)

Target: T1, Interleukin-6 / anti-IL-6 antibody binding (Homo sapiens, UniProt P05231)
T1 construct: purchased Amersham RPN 2754
Assay: IL-6 ELISA standard curves with lysis reagent and sequestrant
Details: 1% DTAB in standards
Method: Working standards (10.24400 pg/ml IL-6) were prepared in polypropylene tubes using assay buffer containing 1% (w/v) DTAB. The biotinylated antibody was prepared in buffer containing 3% (w/v) alpha-cyclodextrin. 50 μl of biotinylated antibody (containing cyclodextrin) was added to the anti-IL-6 coated plate. 50 μl of working standard and cell lysate was pipetted into separate wells of the anti-IL-6 coated plate. Non-specific binding was measured in the absence of IL-6 (zero IL-6 standard). The order of addition of biotinylated antibody and samples/standards is not critical to the procedure. […] The optical density was determined with a microtitre plate spectrophotometer set at 450 nm. Interleukin-6 levels were determined using log/linear analysis with reference to a standard curve. […]
(§1) Interleukin-6 standards (10.24-400 pg/ml) were prepared in standard diluent either in the presence (□) or absence (●) of lysis reagent (1% w/v DTAB). […] The plate was incubated for 2 hours at room temperature, and the optical density measured as described under the methods section.
as §1

T1 sequence (P05231 30-212): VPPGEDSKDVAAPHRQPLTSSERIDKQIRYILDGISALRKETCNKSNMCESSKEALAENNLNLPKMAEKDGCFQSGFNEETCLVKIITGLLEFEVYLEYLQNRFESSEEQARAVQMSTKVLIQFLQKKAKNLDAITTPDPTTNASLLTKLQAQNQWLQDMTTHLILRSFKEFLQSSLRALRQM

SMILES	antibody binding in the IL-6 ELISA (3% (w/v) alpha-cyclodextrin in biotinylated antibody)	antibody binding in the IL-6 ELISA (zero cyclodextrin)
OC[C@H]1O[C@@H]2O[C@H]3[C@H](O)[C@@H](O)[C@@H](O[C@H]4[C@H](O)[C@@H](O)[C@@H](O[C@H]5[C@H](O)[C@@H](O)[C@@H](O[C@H]6[C@H](O)[C@@H](O)[C@@H](O[C@H]7[C@H](O)[C@@H](O)[C@@H](O[C@H]1[C@H](O)[C@H]2O)O[C@@H]7CO)O[C@@H]6CO)O[C@@H]5CO)O[C@@H]4CO)O[C@@H]3CO [CD, alpha-cyclodextrin]	Binding was restored	
CCCCCCCCCCCC[N+](C)(C)C.[Br-] [DTAB, dodecyl trimethyl ammonium bromide]		inhibition of antibody binding
